# Source: PubChem BioAssay AID652220 (The Scripps Research Institute Molecular Screening Center, 2013)
# Target: Serine/threonine-protein phosphatase PP1-alpha catalytic subunit (Homo sapiens) (UniProt P62136)
# Assay: PP1 inhibitor potency with OMFP substrate, dose response, biochemical, fluorescence, set 3 (AID 652220)
# Settings: purified PP1alpha, OMFP dephosphorylation
# Sequence of Serine/threonine-protein phosphatase PP1-alpha catalytic subunit (Homo sapiens) (P62136 whole entry, looked up): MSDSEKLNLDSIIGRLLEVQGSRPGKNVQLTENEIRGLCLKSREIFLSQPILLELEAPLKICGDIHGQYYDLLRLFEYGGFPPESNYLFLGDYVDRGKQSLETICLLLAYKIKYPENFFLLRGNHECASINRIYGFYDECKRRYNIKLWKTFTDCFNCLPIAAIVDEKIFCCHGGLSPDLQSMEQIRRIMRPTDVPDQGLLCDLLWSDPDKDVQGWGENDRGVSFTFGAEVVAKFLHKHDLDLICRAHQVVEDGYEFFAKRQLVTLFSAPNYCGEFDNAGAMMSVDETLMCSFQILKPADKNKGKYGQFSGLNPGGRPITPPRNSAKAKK
row,SMILES,IC50
1,CN1CCN([C@H](c2ncccn2)c2ccc3cccnc3c2O)CC1,5.86 µM
2,CN1CCN([C@@H](c2ncccn2)c2ccc3cccnc3c2O)CC1,4.81 µM
